Reference: paper doi:10.64898/2025.12.30.696991 (bioRxiv, 2026)
Where two headings read alike, the source gives them in different places.

Experiments:
[1] = tested on: intracellular susceptible S. Typhimurium (ATCC 700720); assay: Intracellular gentamicin protection assay, susceptible S. Typhimurium in RAW 264.7 macrophages; type: cell-based, Salmonella enterica serovar Typhimurium; conditions: for selectivity (selectivity indices): LC50 / IC50, strain not specified; for IC50: Salmonella enterica; for Selectivity: LC50 / IC50, susceptible S. Typhimurium
Experimental: (§1) RAW 264.7 cells were seeded at 3×10^4 cells/well in a 96-well plate and maintained at 37°C for 20 hours. A single colony of susceptible or MDR S. Typhimurium was inoculated and cultured overnight in nutrient broth and diluted to obtain a log-phase culture stock with an adjusted optical density (OD600) of 0.6, equivalent to a concentration of 3×10^8 CFU/mL (determined by a prior colony forming units (CFU) assay). The bacterial stock solution was resuspended in antibiotic-free DMEM supplemented with 2% FBS and further diluted to obtain a bacterial concentration of 3×10^6 CFU/mL. Cell media was aspirated and replaced with 100 μL of bacteria culture in DMEM resulting in a multiplicity of infection (MOI) of 10. The cells underwent infection for two hours or 30 minutes at 37°C with susceptible or MDR bacteria, respectively. This differential infection incubation period was based on strain-specific infectivity potential. […] Media was aspirated from the wells and replaced with DMEM (2% FBS) containing 100 μg/mL gentamicin for one hour at 37°C to eliminate extracellular bacteria. Following this step, cells were washed once with media and treated for 22 hours with analogs at varying concentrations (0.1 – 5 μM) in DMEM (2% FBS, no pen/strep) containing 10 μg/mL gentamicin to suppress extracellular bacterial growth. AR-12 treated, uninfected, and DMSO-vehicle treated cells were included as controls. Post treatment, cells were washed with PBS and lysed with 0.1% Triton-X100, a concentration sufficient to disrupt host cells while preserving bacterial integrity. The lysates containing intracellular bacteria were serially diluted and enumerated by using drop-plate assay as described previously.([27]) Agar plates were incubated overnight at 37°C before CFU from each dilution were counted.

[2] = tested on: intracellular MDR S. Typhimurium (ATCC 700408); assay: Intracellular gentamicin protection assay, MDR S. Typhimurium in RAW 264.7 macrophages; type: cell-based, Salmonella enterica serovar Typhimurium; conditions: for IC50: Salmonella enterica, RAW264.7, Table 2, intracellular burden 50% in RAW 264.7; for MDR Selectivity: Table 2, LC50 / IC50; for difference of IC50 between susceptible and MDR S. Typhimurium: defined as 2-fold difference MDR IC50 / Susc IC50
Experimental: as §1
Supplemental Figure 2: Evaluating lead compound efficacy against MDR S. Typhimurium. A) Schematic illustrating gentamicin protection assay. Day 0 RAW 264.7 macrophages are seeded into 96-well plate and STM culture is inoculated. Day 1: RAW 264.7 cells are infected with STM at an MOI of 10 for 30 min, washed, then treated with gentamicin for 1hr to remove extracellular bacteria. AR-12 analogs added to infected cells for 22hr incubation. Day 2: RAWs are washed, lysed, diluted and then dropped onto agar plates. Day 3: colony forming units (CFUs) counted. B) Dose effect curves of intracellular MDR S. Typhimurium viability from RAW 264.7 macrophages after 22hr treatment with hit compounds. CFUs normalized to untreated controls. Parental compound AR-12 included for comparison.

[3] = in vitro; type: cell-based
Experimental: Cell proliferation and viability in the presence of the analogs was tested in the macrophage cell line RAW 264.7 using a 3-(4,5-dimethylthiazol-2-yl)-2,5-diphenyl-2H-tetrazolium bromide (MTT) assay. Cells were seeded at 3×10^4 cells/well in 96 well plates in DMEM (10% FBS, 1% pen/strep). […] DMSO vehicle was utilized as a control, as all the drugs were reconstituted from DMSO stocks. After 24 hr treatment, media was replaced with 100 μL of 0.6 mg/mL MTT solution and the cells were incubated at 37°C until formazan crystals formed. The MTT solution was then replaced with 100 μL of isopropanol, to dissolve the formazan crystals. Cell viability was determined by measuring absorbance at 560 nm of drug treated cells normalized to DMSO vehicle controls. The absorbance at 670 nm was used as a background correction. Cell viability was plotted against increasing drug concentration to obtain the 50% lethal concentration (LC50), defined as the drug concentration resulting in 50% cell viability.

[4] = tested on: planktonic susceptible S. Typhimurium (ATCC 700720); assay: Direct effect on planktonic susceptible bacteria (optical density 600 nm); type: cell-based, Salmonella enterica serovar Typhimurium; conditions: Salmonella enterica
Experimental: (§2) A single colony of susceptible or MDR bacteria was inoculated into nutrient broth and incubated overnight at 37°C in an orbital shaker set at 200 rpm. The overnight culture was sub-cultured (1:100) in fresh medium to obtain log-phase bacterial growth after an additional 3 hr incubation at 37°C and further adjusted to obtain a bacterial stock solution with an absorbance value of 0.6 at 600 nm, equivalent to a concentration of 3×10^8 CFU/mL. The bacterial stock was diluted with nutrient broth to obtain 3×10^4 CFU/well in a 96 well plate. Next, 10 μL of each analog were added to yield a total volume of 100 μL /well with a final concentration of 20 μM. Drug-free and bacteria-free wells were used as controls. The plate was incubated at 37°C for 22 hr. Percent bacterial viability was determined using optical density measurements at 600 nm, subtracting out bacteria free absorbance (background) and normalizing to a DMSO vehicle control. Bacterial viability was plotted against increasing drug concentration to obtain the 50% minimum inhibitory concentration (MIC50), defined as the drug concentration resulting in 50% bacterial viability.

[5] = tested on: planktonic MDR S. Typhimurium (ATCC 700408); assay: Direct effect on planktonic MDR bacteria (optical density 600 nm); type: cell-based, Salmonella enterica serovar Typhimurium; conditions: Salmonella enterica, Table 2, OD 600 nm
Experimental: as §2

[6] = RAW264.7, 22 h, Table 1, concentration at which intracellular susceptible S. Typhimurium burden is 50% in RAW 264.7 macrophages, 22 h treatment, read-out: IC50
[7] = RAW264.7, Table 2, intracellular burden 50% in RAW 264.7, read-out: Susc. IC50
[8] = Table 1, planktonic susceptible S. Typhimurium viability 50% by optical density, 22 hr, read-out: MIC50
[9] = Table 2, planktonic Salmonella, OD 600 nm, read-out: Susc. MIC50

NCC(=O)Nc1ccc(-n2nc(C(F)(F)F)cc2-c2ccc3c(ccc4ccccc43)c2)cc1 [AR-12, reference compound]
selectivity (selectivity indices) [1]: around 20
IC50 [1, 6]: 420 nM
IC50 [1, 7]: 400 nM
Selectivity ([1]; Table 1): 19.8
IC50 [2]: 340 nM
MDR Selectivity [2]: 24.4
CC50 at 24 h ([3]; Table 1, RAW 264.7 viability reduced by 50%, MTT assay, 24 hr, 1–100 μM, read-out: LC50): 8000 nM
CC50 at 24 h ([3]; Table 2, RAW 264.7 viability 50%, colorimetric assay, extended up to 500 μM, read-out: LC50): 8300 nM
MIC50 [4, 8]: > 20 µM
MIC50 [4, 9]: > 20 µM
MIC50 [5]: > 20 µM

Fc1cccc(CN2CCC(Nc3ccc(-n4nc(C(F)(F)F)cc4C4CCCCC4)cc3)CC2)c1 [Compound 322]
IC50 [1, 6]: 140 nM
IC50 [1, 7]: 140 nM
Selectivity ([1]; Table 1): 324
IC50 [2]: 120 nM
MDR Selectivity [2]: 372
CC50 at 24 h ([3]; mouse, LC50): 43700 nM
MIC50 [4, 8]: > 20 µM
MIC50 [4, 9]: > 20 µM
MIC50 [5]: > 20 µM

N#Cc1ccc(CN2CCC(Nc3ccc(-n4nc(C(F)(F)F)cc4C4CCCCC4)cc3)CC2)cc1 [Compound 323]
IC50 [1, 6]: 100 nM
IC50 [1, 7]: 100 nM
Selectivity ([1]; Table 1): 333
IC50 [2]: 200 nM
MDR Selectivity [2]: 160
difference of IC50 between susceptible and MDR S. Typhimurium [2]: strongly different
CC50 at 24 h ([3]; mouse, LC50): 32000 nM
MIC50 [4, 8]: > 20 µM
MIC50 [4, 9]: > 20 µM
MIC50 [5]: > 20 µM

NC1CCN(c2ccc(-n3nc(C(F)(F)F)cc3C3CCCCC3)cc2)CC1 [Compound 324]
IC50 [1, 6]: 80 nM
IC50 [1, 7]: 80 nM
Selectivity ([1]; Table 1): 244
IC50 [2]: 160 nM
MDR Selectivity [2]: 118
difference of IC50 between susceptible and MDR S. Typhimurium [2]: strongly different
CC50 at 24 h ([3]; mouse, LC50): 18800 nM
MIC50 [4, 8]: > 20 µM
MIC50 [4, 9]: > 20 µM
MIC50 [5]: > 20 µM

NCC(=O)Nc1ccc(-n2nc(C(F)(F)F)cc2C2CCCCC2)cc1 [Compound 341]
IC50 [1, 6]: 80 nM
IC50 [1, 7]: 80 nM
Selectivity ([1]; Table 1): 398
IC50 [2]: 100 nM
MDR Selectivity [2]: 318
CC50 at 24 h ([3]; mouse, LC50): 31800 nM
MIC50 [4, 8]: > 20 µM
MIC50 [4, 9]: > 20 µM
MIC50 [5]: > 20 µM

FC(F)(F)c1cc(C2CCCCC2)n(-c2ccc(N3CCC(NCc4ccccc4)C3)cc2)n1 (centres unmarked) [Compound 364]
IC50 [1, 6]: 130 nM
IC50 [1, 7]: 130 nM
Selectivity ([1]; Table 1): 269
IC50 [2]: 120 nM
MDR Selectivity [2]: 291
CC50 at 24 h ([3]; mouse, LC50): 35000 nM
MIC50 [4, 8]: > 20 µM
MIC50 [4, 9]: > 20 µM
MIC50 [5]: > 20 µM

N#Cc1ccc(CNC2CCN(c3ccc(-n4nc(C(F)(F)F)cc4C4CCCCC4)cc3)C2)cc1 (centres unmarked) [Compound 365]
IC50 [1, 6]: 150 nM
IC50 [1, 7]: 150 nM
Selectivity ([1]; Table 1): 285
IC50 [2]: 370 nM
MDR Selectivity [2]: 115
difference of IC50 between susceptible and MDR S. Typhimurium [2]: strongly different
CC50 at 24 h ([3]; mouse, LC50): 42700 nM
MIC50 [4, 8]: > 20 µM
MIC50 [4, 9]: > 20 µM
MIC50 [5]: > 20 µM

FC(F)(F)c1cc(C2CCCCC2)n(-c2ccc(OC3CCNCC3)cc2)n1 [Compound 370]
IC50 [1, 6]: 80 nM
IC50 [1, 7]: 80 nM
Selectivity ([1]; Table 1): 229
IC50 [2]: 60 nM
MDR Selectivity [2]: 269
CC50 at 24 h ([3]; mouse, LC50): 17200 nM
MIC50 [4, 8]: > 20 µM
MIC50 [4, 9]: > 20 µM
MIC50 [5]: > 20 µM

FC(F)(F)c1cc(C2CCCCC2)n(-c2ccc(OC3CCN(Cc4ccccc4)CC3)cc2)n1 [Compound 371]
IC50 [1, 6]: 140 nM
IC50 [1, 7]: 140 nM
Selectivity ([1]; Table 1): 644
IC50 [2]: 110 nM
MDR Selectivity [2]: 790
CC50 at 24 h ([3]; mouse, LC50): 90200 nM
MIC50 [4, 8]: > 20 µM
MIC50 [4, 9]: > 20 µM
MIC50 [5]: > 20 µM

Fc1cccc(CN2CCC(Oc3ccc(-n4nc(C(F)(F)F)cc4C4CCCCC4)cc3)CC2)c1 [Compound 372]
selectivity (selectivity indices) [1]: > 2000
IC50 [1, 6]: 130 nM
IC50 [1, 7]: ~130 nM
Selectivity ([1]; Table 1): >769
IC50 [2]: 170 nM
MIC50 [4, 8]: > 20 µM
MIC50 [4, 9]: > 20 µM
MIC50 [5]: > 20 µM

N#Cc1ccc(CN2CCC(Oc3ccc(-n4nc(C(F)(F)F)cc4C4CCCCC4)cc3)CC2)cc1 [Compound 373]
selectivity (selectivity indices) [1]: > 2000
IC50 [1, 6]: 130 nM
IC50 [1, 7]: ~130 nM
Selectivity ([1]; Table 1): >769
IC50 [2]: ~130 nM
MIC50 [4, 8]: > 20 µM
MIC50 [4, 9]: > 20 µM
MIC50 [5]: > 20 µM

FC(F)(F)c1cc(C2CCCCC2)n(-c2ccc(OC3CCN(Cc4ccccc4)C3)cc2)n1 (centres unmarked) [Compound 378]
improvement in selectivity over AR-12 [1]: approximately 100 fold
IC50 [1, 6]: 310 nM
IC50 [1, 7]: 310 nM
Selectivity ([1]; Table 1): >322
IC50 [2]: 180 nM
MIC50 [4, 8]: > 20 µM
MIC50 [4, 9]: > 20 µM
MIC50 [5]: > 20 µM

FC(F)(F)c1cc(C2CCCCC2)n(-c2ccc(NC3CCN(Cc4ccccc4)CC3)cc2)n1 [Compound 381]
IC50 [1, 6]: 110 nM
IC50 [1, 7]: 110 nM
Selectivity ([1]; Table 1): 260
IC50 [2]: 140 nM
MDR Selectivity [2]: 211
CC50 at 24 h ([3]; mouse, LC50): 28600 nM
MIC50 [4, 8]: > 20 µM
MIC50 [4, 9]: > 20 µM
MIC50 [5]: > 20 µM
